Assay results reported in US9302999B2, “Substituted triazoles as herbicides” (E. I. DU PONT DE NEMOURS AND COMPANY, priority 2012, dated 2016).
Like-named read-outs stand apart in the source and are kept apart here.

What was measured:
Format in all cases: in vivo
[1] = tested on: barnyardgrass (Echinochloa crus-galli); assay: Test A pre-/postemergence: barnyardgrass; conditions: Echinochloa crus-galli, 240 h; for pest or weed control at 125 g/ha: 125 g ai/ha; for pest or weed control at 500 g/ha: 500 g ai/ha
Summary of the method: (§1)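 Plants in loam–sand blend were treated with test chemicals in non-phytotoxic solvent with surfactant, either as preemergence directed soil spray or postemergence at 2–10 cm, one- to two-leaf stage. After about ten days in greenhouse, injury was rated visually against untreated controls on a 0–100 scale (100 = complete control).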

[2] = tested on: foxtail, giant (giant foxtail, Setaria faberii); assay: Test A pre-/postemergence: foxtail, giant; conditions: Setaria faberi, 240 h; for pest or weed control at 125 g/ha: 125 g ai/ha; for pest or weed control at 500 g/ha: 500 g ai/ha
Summary of the method: as §1

[3] = tested on: morningglory (Ipomoea spp.); assay: Test A pre-/postemergence: morningglory; conditions: Ipomoea, 240 h; for pest or weed control at 125 g/ha: 125 g ai/ha; for pest or weed control at 500 g/ha: 500 g ai/ha
Summary of the method: as §1

[4] = tested on: pigweed (Amaranthus retroflexus); assay: Test A pre-/postemergence: pigweed; conditions: Amaranthus retroflexus, 240 h; for pest or weed control at 125 g/ha: 125 g ai/ha; for pest or weed control at 500 g/ha: 500 g ai/ha
Summary of the method: as §1

[5] = tested on: wheat (Triticum aestivum); assay: Test A pre-/postemergence: wheat; conditions: Triticum aestivum, 240 h; for plant injury at 125 g/ha: 125 g ai/ha; for plant injury at 500 g/ha: 500 g ai/ha
Summary of the method: as §1

[6] = post-emergence, Postemergence, 0 to 100 scale, 0 is no effect, 100 is complete control, read-out: Barnyardgrass plant response rating
[7] = post-emergence, Postemergence, visual rating on 0 to 100 scale (0 no effect, 100 complete control), approximately ten days, read-out: Barnyardgrass plant response rating
[8] = pre-emergence, Preemergence, 0 to 100 scale (0 no effect, 100 complete control), read-out: Plant response rating, Barnyardgrass
[9] = post-emergence, Postemergence, 0 to 100 scale, 0 is no effect, 100 is complete control, read-out: Foxtail, Giant plant response rating
[10] = post-emergence, Postemergence, visual rating on 0 to 100 scale (0 no effect, 100 complete control), approximately ten days, read-out: Foxtail, Giant plant response rating
[11] = pre-emergence, Preemergence, 0 to 100 scale (0 no effect, 100 complete control), read-out: Plant response rating, Foxtail, Giant
[12] = post-emergence, Postemergence, 0 to 100 scale, 0 is no effect, 100 is complete control, read-out: Morningglory plant response rating
[13] = post-emergence, Postemergence, visual rating on 0 to 100 scale (0 no effect, 100 complete control), approximately ten days, read-out: Morningglory plant response rating
[14] = pre-emergence, Preemergence, 0 to 100 scale (0 no effect, 100 complete control), read-out: Plant response rating, Morningglory
[15] = post-emergence, Postemergence, 0 to 100 scale, 0 is no effect, 100 is complete control, read-out: Pigweed plant response rating
[16] = post-emergence, Postemergence, visual rating on 0 to 100 scale (0 no effect, 100 complete control), approximately ten days, read-out: Pigweed plant response rating
[17] = pre-emergence, Preemergence, 0 to 100 scale (0 no effect, 100 complete control), read-out: Plant response rating, Pigweed
[18] = post-emergence, Postemergence, 0 to 100 scale, 0 is no effect, 100 is complete control, read-out: Wheat plant response rating
[19] = post-emergence, Postemergence, visual rating on 0 to 100 scale (0 no effect, 100 complete control), approximately ten days, read-out: Wheat plant response rating
[20] = pre-emergence, Preemergence, 0 to 100 scale (0 no effect, 100 complete control), read-out: Plant response rating, Wheat

Row | Compound | pest or weed control at 125 g/ha [1, 6] | pest or weed control at 500 g/ha [1, 7] | pest or weed control at 125 g/ha [2, 9] | pest or weed control at 500 g/ha [2, 10] | pest or weed control at 125 g/ha [3, 12] | pest or weed control at 500 g/ha [3, 13] | pest or weed control at 125 g/ha [4, 15] | pest or weed control at 500 g/ha [4, 16] | plant injury at 125 g/ha [5, 18] | plant injury at 500 g/ha [5, 19] | further results
1 | COc1nn(-c2ccc(C(F)(F)F)cc2)nc1Cn1ccc(C(F)(F)F)n1 [Compound 17, 4-methoxy-2-[4-(trifluoromethyl)phenyl]-5-[[3-(trifluoromethyl)-1H-pyrazol-1-yl]methyl]-2H-1,2,3-triazole] | 30% | 90% | 60% | 80% | 50% | 90% | 90% | 100% | 20% | 40% | pest or weed control at 125 g/ha [1, 8]: 30%; pest or weed control at 500 g/ha ([1]; pre-emergence, Preemergence, 0 to 100 scale, 0 is no effect, 100 is complete control, read-out: Plant response rating, Barnyardgrass): 90%; pest or weed control at 125 g/ha [2, 11]: 90%; pest or weed control at 500 g/ha ([2]; pre-emergence, Preemergence, 0 to 100 scale, 0 is no effect, 100 is complete control, read-out: Plant response rating, Foxtail, Giant): 100%; pest or weed control at 125 g/ha [3, 14]: 0%; pest or weed control at 500 g/ha ([3]; pre-emergence, Preemergence, 0 to 100 scale, 0 is no effect, 100 is complete control, read-out: Plant response rating, Morningglory): 50%; pest or weed control at 125 g/ha [4, 17]: 90%; pest or weed control at 500 g/ha ([4]; pre-emergence, Preemergence, 0 to 100 scale, 0 is no effect, 100 is complete control, read-out: Plant response rating, Pigweed): 100%; plant injury at 125 g/ha [5, 20]: 0%; plant injury at 500 g/ha ([5]; pre-emergence, Preemergence, 0 to 100 scale, 0 is no effect, 100 is complete control, read-out: Plant response rating, Wheat): 0%
2 | CCc1nn(-c2ccc(C(F)(F)F)cc2)nc1Oc1cccc(OC(F)(F)F)c1 [Compound 125, 4-ethyl-5-[3-(trifluoromethoxy)phenoxy]-2-[4-(trifluoromethyl)phenyl]-2H-1,2,3-triazole] | 0% | 30% | 50% | 60% | 60% | 100% | 90% | 100% | 0% | 20% | pest or weed control at 125 g/ha ([1]; pre-emergence, Preemergence, 0 to 100 scale where 0 is no effect and 100 is complete control, read-out: Plant response rating, Barnyardgrass): 30%; pest or weed control at 500 g/ha [1, 8]: 50%; pest or weed control at 125 g/ha ([2]; pre-emergence, Preemergence, 0 to 100 scale where 0 is no effect and 100 is complete control, read-out: Plant response rating, Foxtail, Giant): 80%; pest or weed control at 500 g/ha [2, 11]: 90%; pest or weed control at 125 g/ha ([3]; pre-emergence, Preemergence, 0 to 100 scale where 0 is no effect and 100 is complete control, read-out: Plant response rating, Morningglory): 0%; pest or weed control at 500 g/ha [3, 14]: 10%; pest or weed control at 125 g/ha ([4]; pre-emergence, Preemergence, 0 to 100 scale where 0 is no effect and 100 is complete control, read-out: Plant response rating, Pigweed): 70%; pest or weed control at 500 g/ha [4, 17]: 90%; plant injury at 125 g/ha ([5]; pre-emergence, Preemergence, 0 to 100 scale where 0 is no effect and 100 is complete control, read-out: Plant response rating, Wheat): 0%; plant injury at 500 g/ha [5, 20]: 0%
